These results are taken from patent US5807891A, “Antiviral ethers of aspartate protease substrate isosteres” (priority 1994, dated 1998).

The subject of series [1] is HIV-1/LAV in human peripheral mononuclear blood cells. As to the kind of experiment: Antiviral activity in peripheral mononuclear blood cells infected with HIV-1, cumulative RT activity. The format is cell-based. The text has this:
For the experiments using peripheral mononuclear blood cells, the cells are isolated from the blood of healthy HIV-seronegative human subjects using a combination of leukaphoresis and counter-current centrifugal elutriation in accordance with known methods (see Alteri, E., et al., Antimicrob. Agent Chemother. 37(10), 2087-92 (1993)).
The lymphocytotrophic isolate HIV-1/LAV (LAV.04/A.301), for example, is used as the virus (see Science 220, 868-71 (1983)).
The final concentration of free DMSO is less than 0.5%.
When peripheral mononuclear blood cells are used: The mixture of mononuclear cells (lymphocytes and monocytes), which is obtained as described above, is cultured, in the presence of 0.25 μg/ml phytohaemagglutinin (Wellcome Diagnostics, Temple Hill, Dartford, England), for two days in RPMI-1640 (GIBCO, Paisley, Scotland), 50 mU/ml penicillin, 50 μg/ml streptomycin (ANIMED, Muttenz, Switzerland), 2 mM L-glutamine (AMIMED, Muttenz, Switzerland) and 10 mM HEPES buffer (GIBCO, Paisley, Scotland). Successful activation is monitored by measuring the increase in cell size (scattergram, FCM analysis). The cells are resuspended in complete medium containing 10% human AB serum (Sigma, St. Louis, U.S.A.) and infected with HIV-1 for 6 h. After the viral adsorption, the cells are washed and resuspended in complete medium which is supplemented with 100 U/ml human recombinant IL-2 (Genzyme, Cambridge, U.S.A.). 9×10^4 cells are plated out per well (0.3 ml) in 96-well plates having U-shaped well bottoms. The antiviral compounds are added either alone or in combination to sets of five cell cultures in each case (pentaplicates) directly following the infection. Two thirds of the culture medium with or without antiviral compound(s) are replaced every three days. The test is concluded on day 13 after infection. The progress of the viral infection is measured by determining the RT activity as described above for the cell lines.
The activities of the individual compounds, and the combinations, specified in the title, in the peripheral mononuclear blood cell culture are determined using the method described above in association with the description of the pharmacological properties. The measurement result is expressed as the cumulative activity of the reverse transcriptase (RT), in cpm/1.25 μl (number of measured ^32 P disintegrations per 1.25 μl of test mixture and minute) on day 17 after the infection. […] The test compound(s) is/are re-added in associated with each change of the medium (on days 0, 3, 6, 10 and 13): […]

Series [2] relates to H9/HIV-1/IIIB cells cocultured with CEM-SS cells. As to the kind of experiment: Antiviral activity in coculture of CEM-SS cells and permanently infected H9/HIV-1/IIIB cells, RT activity. The format is cell-based. As to conditions: Human immunodeficiency virus 1, IIIB, 96 h; for inhibition at 0.0125 µM: 12.5 nM. As to the method:
The final concentration of free DMSO is less than 0.5%. When using cell lines: The cell lines are maintained in complete culture medium of the following composition: RPMI 1640 (GIBCO, Paisley, Scotland), supplemented with 10% foetal calf serum (SEROMED, Berlin, Germany), 10 mM 4-(2-hydroxyethyl)piperazine-1-ethanesulfonic acid(=HEPES) and 2 mM L-glutamine (AMIMED, Muttenz, Switzerland). […] The test compounds are tested as individual substances or as a combination of two active substances in defined concentration ratios. H9/HIV-1/IIIB cells are mixed, after having been washed twice and having been suspended in fresh medium, with CEM-SS cells in a ratio of 1:50. 100 μl of the cell mixture are dispensed into each well of 96-well tissue culture plates with the wells in each case containing 400 H9/HIV-1/IIIB cells and 2×10^4 CEM-SS cells. Immediately after the cells have been dispensed, two-fold serial dilutions of the test compounds are added (100 μl per well) in each case in sets of six. Instead of this, 100 μl of medium are added to each well for the virus control (VC); CEM-SS cells on their own (without H9/HIV-1/IIIB cells) are used as the control (CC). The final volume is 200 μl/well. […] The virus production is determined as the virus-associated activity of the reverse transcriptase (RT) in accordance with the following method, which has already been described above (see […]., et al., Antimicrob. Agent Chemother. 37(10), 2087-92 (1993)): When carrying out the measurement, 30 μl of reverse transcriptase cocktail are added to each well. The reverse transcriptase cocktail consists of 50 mM Tris (α,α,α-tris(hydroxymethyl)methylamine, Ultra pur, Merck, Germany), pH 7.8; 75 mM KCl, 2 mM dithiothreitol, 5 mM MgCl2; 0.1% Nonidet P-40 (detergent; Sigma, Switzerland), 0.8 mM EDTA, 10 μg/ml poly-A (Pharmacia, Uppsala, Sweden) and 0.16 μg/ml oligo(T)(=pdT(12-18), Pharmacia, Uppsala, Sweden) as template primer. The mixture is filtered through a 0.45 μm Acrodisc filter (Gelman Sciences Inc., Ann Arbor, U.S.A.) and stored at -20° C. […] After mixing, the plate is incubated at 37° C. for 1.5 h. 5 μl of the reaction mixture are transferred to DE81 paper (Whatman, one filter per well). The dried filters are washed three times for 5 min with 300 mM NaCl/25 mM trisodium citrate and then once with ethanol, and air-dried once again. The radioactivity on the filters is measured in a Packard Matrix 96-well counter (Packard, Zurich, Switzerland). The antiretroviral effect is given as the % reduction in RT activity as compared with the VC values. The activities of the individual compounds, and the combinations, mentioned in the title, in the coculture of the CEM-SS cell line and the permanently infected cell line H9/HIV-1/IIIB are determined using the method described above in association with the description of the pharmacological properties. The measurement result is expressed as % reduction of the reverse transcriptase (RT) activity. The results are presented in the following table; measurement results which confirm the occurrence of synergism are emphasized by underlining: […]

Another series has as its system HIV protease. As to conditions: cited from earlier work.
The next series deals with viral replication. The settings on record: cited from earlier work.
For series [3] the following is noted: in vivo; cited from earlier work.
For series [4] the following is noted: in vivo, po; cited from earlier work.
Series [5] concerns CD4 lymphocytes in the blood. As to conditions: AIDS patients; cited from earlier work.

SMILES strings stand for the structures. Like-named read-outs stand apart in the source and are kept apart here.

As a reminder, the inhibition is the share of the control response that was lost under treatment. As to `COCCNC(=O)[C@@H](NC(=O)[C@H](Cc1ccc(OC)c(OC)c1OC)C[C@H](O)[C@H](Cc1ccccc1)NC(=O)OC(C)(C)C)C(C)C` [Example 47, 5(S)-(Boc-Amino)-4(S)-hydroxy-6-phenyl-2(R)-[(2,3,4-trimethoxyphenyl)methyl]hexanoyl-(L)-Val-N-(2-methoxyethyl)amide], the “Cumulative RT activity on day 17 after the infection” value stood at 7909 cpm/μl in series [1] (Example 47 concentration 7.5 alone (unit not given)); 9132 cpm/μl in series [1] (Example 47 concentration 15 alone (unit not given)); 8457 cpm/μl in series [1] (Example 47 concentration 30 alone (unit not given)); 1823 cpm/μl in series [1] (Example 47 concentration 60 alone (unit not given)); 49 cpm/μl in series [1] (Example 47 concentration 120 alone (unit not given)). The inhibition at 0.003125 µM in series [2] (3.125 nM, coculture, day 4, read-out: % Inhibition of the RT activity by Example 47 title compound alone) was determined as 2.7%. For the same molecule, the inhibition at 0.00625 µM in series [2] (6.25 nM, coculture, day 4, read-out: % Inhibition of the RT activity by Example 47 title compound alone) amounted to 1.3%. Further, the inhibition at 0.0125 µM in series [2] (coculture, day 4, read-out: % Inhibition of the RT activity by Example 47 title compound alone) stood at 52%.

In the case of `CC(C)(C)NC(=O)[C@@H]1CN(Cc2cccnc2)CCN1C[C@@H](O)C[C@@H](Cc1ccccc1)C(=O)N[C@H]1c2ccccc2C[C@H]1O` [Indinavir], in series [2] (coculture, day 4, read-out: % Inhibition of the RT activity by Indinavir alone), the inhibition at 0.0125 µM was found to be 3.2%. Besides, the inhibition at 0.025 µM in series [2] (25 nM, coculture, day 4, read-out: % Inhibition of the RT activity by Indinavir alone) is 59.7%.

On to `CC(C)(C)NC(=O)[C@@H]1C[C@@H]2CCCC[C@@H]2CN1C[C@@H](O)[C@H](Cc1ccccc1)NC(=O)[C@H](CC(N)=O)NC(=O)c1ccc2ccccc2n1` [Saquinavir, N-tert-butyldecahydro-2-[2(R)-hydroxy-4-phenyl-3(S)-[[N-2-quinolylcarbonyl-L-asparaginyl]amino]butyl]-(4aS,8aS)-isoquinoline-3(S)-carboxamide], for which the “effect on HIV protease in vitro” value with HIV protease is reported as “inhibitory effect”. In the series on viral replication, the “viral replication in cell experiments” value was “suppressed viral replication”. The blood levels result is “useful blood levels were also achieved” in series [3] and “useful blood levels were achieved” in series [4]. Further, the inhibition at 0.00626 µM in series [2] (read-out: % Inhibition of the RT activity by Saquinavir alone) was found to be 93.8%. For the same molecule, the inhibition at 0.00078 µM in series [2] (read-out: % Inhibition of the RT activity by Saquinavir alone, 0.78 nM, coculture, day 4) stood at 6.6%. Besides, the inhibition at 0.00156 µM in series [2] (read-out: % Inhibition of the RT activity by Saquinavir alone, 1.56 nM, coculture, day 4) worked out at 14.7%. Further, in series [2] (read-out: % Inhibition of the RT activity by Saquinavir alone, 3.125 nM, coculture, day 4), the inhibition at 0.003125 µM came out at 39.3%. In addition, in series [5], the “surrogate marker (titre of the CD4 lymphocytes in the blood)” value is recorded as “first positive effects”.
